Data published in paper PMC9328652, “A novel class of fast‐acting antimalarial agents: Substituted 15‐membered azalides” (British Journal of Pharmacology, 2020).
In brackets after ≈: the same amount, converted by molar mass. Where two headings read alike, the source gives them in different places. Marks after values point to notes of the source that are not given here.

Key:
[1] = system: Plasmodium falciparum FCR3 (CQ,AT); assay: [3H]hypoxanthine incorporation antimalarial assay, strain FCR3; assay type: cell-based; conditions: FCR3, 72 h, read-out: IC50 FCR3 (CQ,AT)
Method: (§1) The activity of the test compounds against P. falciparum in vitro was determined using the tritiated hypoxanthine incorporation assay of Desjardins et al. and additionally modified by Milhous and Chulay (Chulay, Haynes, & Diggs, [1983]; Milhous, Weatherly, Bowdre, & Desjardins, [1985]).
(§2) Compounds were dissolved in DMSO and subsequently diluted in the culture medium (RPMI 1640) supplemented with 10% v/v human plasma. Serial 1:2 drug dilutions were prepared in triplicate in microtitre plates. Culture medium supplemented with 10% v/v human plasma and type A Rhesus positive human erythrocytes infected with P. falciparum strains was added to yield a haematocrit of 3% and a parasitaemia of 0.25–0.55%. The plates were incubated at 37°C in a modular incubator flushed with a mixture of 5% oxygen, 3% carbon dioxide, and 92% nitrogen for 48 h, and then [^3H]hypoxanthine was added to give a final concentration of 12.5–16 μCi·ml^−1. After incubation for additional 24 h, particulate matter was harvested on fibreglass strips and hypoxanthine incorporation determined by scintillation spectrophotometry. […] Delayed death experiments were performed by this standard method but extending the incubation time with the drug up to 96 h.

[2] = system: Plasmodium falciparum Dd2 (CQ,Q,PY,S); assay: microbe, parasite or virus in culture; assay type: cell-based; conditions: for Delayed death phenotype: Dd2 and Dd2(AZ^R), 48 versus 96 h; for IC50: Plasmodium falciparum
Method: as §1, §2

[3] = system: Plasmodium falciparum V1/S (CQ,PY); assay: microbe, parasite or virus in culture; assay type: cell-based; conditions: 72 h, read-out: IC50 V1/S (CQ,PY)
Method: as §1, §2

[4] = system: Plasmodium falciparum T9/94 (CQ); assay: [3H]hypoxanthine incorporation antimalarial assay, strain T9/94; assay type: cell-based; conditions: 72 h, read-out: IC50 T9/94 (CQ)
Method: as §1, §2

[5] = system: Plasmodium falciparum 7G8 (CQ, PY); assay: [3H]hypoxanthine incorporation antimalarial assay, strain 7G8; assay type: cell-based
Method: as §1, §2

haem polymerization = assay: Cell-free haem polymerization assay; assay type: biochemical; conditions: cell‐free, N = 2
Method: Experiments were performed according to Tripathi, Khan, Walker, and […] ([2004]). Briefly, a solution of sodium acetate containing mono-oleoyl glycol and the corresponding inhibitor at different concentrations is placed in 1.5-ml reaction tubes. […] Multiple washing steps with Tris/SDS and bicarbonate, to remove monomeric haem and haem aggregates, allow quantification of de novo formed β-haematin.

H. influenzae ATCC49247 = assay: Antibacterial screen, broth microdilution; assay type: cell-based; conditions: Haemophilus influenzae
Method: (§3) Antibacterial activity of compounds was determined by a standard broth microdilution method (Clinical Laboratory Standard Institute CLSI, [2009]), except that for Streptococcus strains lysed blood was substituted with 5% horse serum in the testing medium. […] The activities are expressed as minimum inhibitory concentrations (MICs) in units of μg·ml^−1. […] The organisms tested represented macrolide sensitive Gram‐positive pathogens that are mainly targeted by macrolide antibiotics. Tested streptococci were clinical isolates Streptococcus pneumoniae SP030 and Streptococcus pyogenes 3565 from internal strain collection, and other strains were obtained from ATCC bioresource centre, Staphylococcus aureus ATCC13709, Haemophilus influenzae ATCC49247, and Moraxella catarrhalis ATCC23246. Double dilutions of tested compounds were prepared using TECAN Genesis 150. Bacteria were grown on appropriate agar plates (Becton Dickinson, USA)—Columbia agar with 5% sheep blood for streptococci and M. catarrhalis, Mueller‐Hinton chocolate agar for H. influenzae , and Mueller‐Hinton agar for staphylococci.

S. aureus ATCC13709 = assay: Antibacterial screen, broth microdilution; assay type: cell-based; conditions: Staphylococcus aureus
Method: as §3

S. pneumoniae SP030 = assay: Antibacterial screen, broth microdilution; assay type: cell-based; conditions: Streptococcus pneumoniae
Method: as §3

S. pyogenes 3565 = assay: Antibacterial screen, broth microdilution; assay type: cell-based; conditions: Streptococcus pyogenes
Method: as §3

M. catarrhalis ATCC23246 = assay: Antibacterial screen, broth microdilution; assay type: cell-based, Moraxella catarrhalis; conditions: Moraxella catarrhalis, ATCC23246; broth microdilution
Method: as §3

[6] = Pharmacokinetic studies in CD-1 mice; conditions: for B/P (ratio of AUC0−t in whole blood and plasma): after oral administration; for DNAUCPO (AUC0−t divided by the dose) / Cmax: blood; for DNAUCPO (AUC0−t divided by the dose): oral gavage 12.5 mg·kg^−1; for half-life / Vd / clearance / bioavailability / AUC(0-t) / Cmax: Swiss albino CD-1, mouse; for Vd / clearance: iv; for AUC(0-t): AUC0-t; for AUC(0-t) / Cmax: oral gavage 12.5 mg/kg; for Cmax: C max
Method: For pharmacokinetic (PK) studies in mice, animals were dosed either by intravenous (i.v.) or oral (p.o.) route. For i.v. administration, the dosing volume was 10 ml·kg^−1 for a total dose of 12.5 mg·kg^−1, and for p.o. administration, the dosing volume was 20 ml·kg^−1 for a total dose of 12.5 mg·kg^−1. Dosing solutions were prepared in 100% saline ([…]) both for i.v. and p.o. administration for all compounds with the exception of compound 4 for which dosing solutions were prepared in PBS with 5% Cremophor‐EL (Fluka). Following i.v. dosing, blood samples were collected at 5 and 15 min, 1, 3, 6, 8, 24, and 48 h post‐dose. Following oral dosing, blood samples were collected at 15 and 30 min, 1, 2, 4, 6, 8, 24, and 48 h post‐dose.
For studies performed in Swiss albino CD‐1 mice (Harlan Laboratories, Spain), in order to obtain simultaneous blood and plasma profiles and blood‐to‐plasma (B/P) ratio, PK was performed using terminal sampling of N = 3 animals per time point and data evaluated using composite analysis. For studies performed in P. falciparum infected and non‐infected NODscidβ2m^−/− mice (Charles River Laboratories, France), only whole blood was obtained by serial sampling of N = 3 animals using tail puncture.
For analysis of whole blood samples, 25 μl of fresh blood were mixed with 25 μl of saponin solution (0.1% in water) and immediately frozen on dry ice. Plasma was obtained by centrifugation of fresh blood at 2,500 g for 10 min. Both blood and plasma samples were stored frozen at −80°C until analysis.
Diluted blood and plasma samples were processed under standard liquid–liquid extraction procedures using acetonitrile containing internal standard (clarithromycin, 100 ng·ml^−1) and analysed by LC–MS/MS in positive ion mode with electrospray. Samples were assayed for parent compound using a Sciex API 4000 and Sciex API‐2000 Triple Quadrupole Mass Spectrometer (Sciex, Division of MDS Inc., Toronto, Canada), against a series of matrix matched calibration curve standards, using multiple reaction monitoring (MRM) at the specific transitions for each compound. Non‐compartmental analysis was performed using WinNonlin, version 4.1 (Pharsight, Mountain View, CA), and the main pharmacokinetic parameters were estimated.

HepG2 cells = conditions: cited from earlier work
[7] = DD2, 48 h, read-out: IC50 Dd2 48 h
[8] = DD2, 72 h, read-out: IC50 Dd2 (CQ,Q,PY,S)
[9] = DD2, 96 h, read-out: IC50 Dd2 96 h
[10] = whole blood, po, 12.5 mg/kg, F, CD‐1 mice, 12.5 mg·kg^−1 i.v. and p.o.
[11] = 7G8, 72 h, read-out: IC50 7G8 (CQ, PY)
[12] = whole blood, intravenous, 12.5 mg/kg
[13] = whole blood, po, 12.5 mg/kg, fasted CD-1 mice
[14] = whole blood, po, 12.5 mg/kg, fed CD-1 mice

| Structure (SMILES) | IC50 [1] | Delayed death phenotype [2] | IC50 [2, 7] | IC50 [2, 8] | IC50 [2, 9] | IC50 [3] | IC50 [4] | IC50 (haem polymerization) | MIC (H. influenzae ATCC49247) | MIC (S. aureus ATCC13709) | MIC (S. pneumoniae SP030) | MIC (S. pyogenes 3565) | MIC (M. catarrhalis ATCC23246) | B/P (ratio of AUC0−t in whole blood and plasma) ([6]; CD‐1 mice) | DNAUCPO (AUC0−t divided by the dose) ([6]; CD‐1 mice) | Vd ([6]; whole blood, 12.5 mg/kg) | clearance ([6]; whole blood, 12.5 mg/kg) | bioavailability [6, 10] | IC50 [5, 11] | half-life [6, 12] | also measured |
| --- | --- | --- | --- | --- | --- | --- | --- | --- | --- | --- | --- | --- | --- | --- | --- | --- | --- | --- | --- | --- | --- |
| CC[C@H]1OC(=O)[C@H](C)[C@@H](O[C@H]2C[C@@](C)(OC)[C@@H](O)[C@H](C)O2)[C@H](C)[C@@H](O[C@@H]2O[C@H](C)C[C@H](N(C)C)[C@H]2O)[C@](C)(O)C[C@@H](C)CN(C)[C@H](C)[C@@H](O)[C@]1(C)O [Azithromycin, reference compound] | 2590 nM | Yes | 3270 nM | 1590 nM | 81 nM | 15900 nM | 2720 nM | > 50000 nM | 2 µg/mL (≈ 2.67 µM) | 1 µg/mL (≈ 1.34 µM) | ≤ 0.125 µg/mL | ≤ 0.125 µg/mL | ≤ 0.125 µg/mL | 2.4 | 267 ng·kg·h/mL/mg | 29.2 L/kg | 40.2 mL/min/kg | 61% | – | – | IC50 ([5]; 7G8, 72 h of incubation, N = 3, read-out: IC50 7G8 (CQ, PY)): 4590 nM; half-life ([6]; in vivo, 12.5 mg/kg): 10.1 h; Tox50 HepG2 (HepG2 cells): 203 ^b μM |
| CC[C@H]1OC(=O)[C@H](C)[C@@H](O[C@H]2C[C@@](C)(OC)[C@@H](O)[C@H](C)O2)[C@H](C)[C@@H](O[C@@H]2O[C@H](C)C[C@H](N(C)C)[C@H]2O)[C@](C)(O)C[C@@H](C)CN(CCCNc2ccnc3cc(Cl)ccc23)[C@H](C)[C@@H](O)[C@]1(C)O [Compound 1] | 22 nM | No | 17 nM | 25 nM | 12 nM | 28 nM | 13 nM | 2500 to 4000 nM | 16 µg/mL (≈ 16.8 µM) | 1 µg/mL (≈ 1.05 µM) | ≤ 0.125 µg/mL | ≤ 0.125 µg/mL | 2 µg/mL (≈ 2.1 µM) | 14.0 | 253 ng·kg·h/mL/mg | 4.42 L/kg | 1.95 mL/min/kg | 4% | 37 nM | 28.2 h | bioavailability ([6]; whole blood, oral, 12.5 mg·kg^−1, F, fasted CD-1 mice, ratio of AUC0-t after PO and IV): 11.3%; bioavailability ([6]; whole blood, oral, 12.5 mg·kg^−1, F, fed CD-1 mice, ratio of AUC0-t after PO and IV): 3.75%; AUC(0-t) [6, 13]: 9510 ng·h/mL; AUC(0-t) [6, 14]: 3160 ng·h/mL; Cmax [6, 13]: 582 ng/mL; Cmax [6, 14]: 162 ng/mL; increase in oral F in fasted versus fed mice ([6]; fed versus fasted mice): threefold increase; Tox50 HepG2 (HepG2 cells; ref Peric et al. ([2012])): 30 ^c μM |
| CC[C@H]1OC(=O)[C@H](C)[C@@H](O)[C@H](C)[C@@H](O[C@@H]2O[C@H](C)C[C@H](N(C)C)[C@H]2OCCCNc2ccnc3ccccc23)[C@](C)(O)C[C@@H](C)CN[C@H](C)[C@@H](O)[C@]1(C)O [Compound 3] | 22 nM | No | 24 nM | 30 nM | 22 nM | 30 nM | 21 nM | 5000 to 6200 nM | > 64 µg/mL | > 64 µg/mL | > 64 µg/mL | > 64 µg/mL | > 64 µg/mL | 3.7 | 362 ng·kg·h/mL/mg | 13.4 L/kg | 10.1 mL/min/kg | 26% | 17 nM | 15.6 h | Tox50 HepG2 (HepG2 cells; ref Pesic et al. ([2012])): 83 ^b μM |
